Measurements as given in US9963712B2, “Gene IbENOD93 and transgenic plants using the same” (Korea University Research and Business Foundation, priority 2014, dated 2018).

Key:
IbENOD93 gene = assay: Regulation of IbENOD93 expression by plant hormone treatment (real-time PCR); format: in vivo, sweet potato; conditions: 3 hours, fibrous roots of single-leaf plantlets, 25° C., dark
Description: To determine the transcriptional regulation of IbENOD93 gene by treatment with auxin (Indole-3-acetic acid; IAA), jasmonic acid (JA), and […] (6-benzylaminopurine; BA), real-time PCR (RT-PCR) was performed using IbENOD93-specific primers (IbENOD93(360)F 5′-[…]-3′ (SEQ ID. NO.: 9) and IbENOD93(512)R 5′-[…]-3′ (SEQ ID. NO.: 10)).
The roots of sweet potato were treated with hormones according to the following method. Sweet potato plantlets bearing a single leaf and petiole were collected from sweet potato plants and incubated in flasks filled with water for 3 weeks. After fibrous roots had developed from the distal end of the petiole, the single-leaf plantlets were incubated in various concentrations of IAA, JA, and BA solutions (0, 50, 100, 200, 500, 1000 μM) at 25° C. in the dark for 3 hours. After the hormone treatment, total RNA was extracted from the fibrous roots using the RNeasy Plant Mini Kit™ (Qiagen) and used for RT-PCR.
Total RNA (5 μg) was used for first-strand cDNA synthesis using the SuperScript III first-strand cDNA synthesis kit (Invitrogen). The resulting cDNA solution was then diluted with 30 μl of TE and used for PCR. Among a total of 20 μl, 1 μl of the synthesized cDNA was used for the RT-PCR, and KAPA SYBR FAST Master mix (KAPABIOSYSTEMS) was used for a final reaction volume of 16 μl. Real-time PCR analysis was performed using the LightCycler 480 quantification system (Roche Diagnostics) according to the manufacturer's instructions. Expression levels were normalized with β-tubulin expression amplified with 5′-[…]-3′ (SEQ ID. NO.: 11) and 5′-[…]-3′ (SEQ ID. NO.: 12) primers. Real-time PCR was performed starting with pre-denaturation at 95° C. for 10 minutes, followed by 45 cycles of denaturation at 95° C. for 10 seconds, annealing at 58° C. for 10 seconds, and extension at 72° C. for 20 seconds. Following the amplification phase, a melting curve analysis was conducted from 65° C. to 97° C. The second derivative maximum method in the LightCycler 480 quantification software (Roche Diagnostics) was used to evaluate the data.

[1] = tested on: MADS-box genes (SRD1, IbMADS1); conditions: upon IAA or JA treatment; Noh et al. 2010, Ku et al. 2008; cited from earlier work

c1ccc(CNc2ncnc3nc[nH]c23)cc1 [BA, 6-benzylaminopurine]
transcript level of IbENOD93 (IbENOD93 gene; BA at 100 μM or higher): increased slightly

CC/C=C\C[C@H]1C(=O)CC[C@@H]1CC(=O)O [JA, jasmonic acid]
transcript level of IbENOD93 (IbENOD93 gene; 200 μM JA): increased sharply
transcript level of MADS-box genes (SRD1, IbMADS1) [1]: increased sharply

O=C(O)Cc1c[nH]c2ccccc12 [IAA, Indole-3-acetic acid]
transcript level of IbENOD93 (IbENOD93 gene; 500 μM IAA): increased sharply
transcript level of MADS-box genes (SRD1, IbMADS1) [1]: increased sharply
